Series [1] has as its system rat BMSCs (rBMSCs). Nature of the series: BrdU proliferation assay in rBMSCs. Format: cell-based. The settings on record: 1 nM. Here is the method:
Rat and mouse bone marrow stromal cells (BMSCs) were seeded at a density of 4000 cells/well in a 96-well plate for cell proliferation and treated with 1 nM of MTZ for 48 h in a growth medium (α-MEM containing 10% FBS). Following the MTZ treatment, the cells were incubated for 4 h with bromodeoxyuridine (BrdU) before termination. Cell proliferation was assessed at 450 nm using the Roche Diagnostics BrdU ELISA kit, in accordance with the manufacturer’s protocol, using a reference wavelength of 690 nm.

For series [2], the system named is rat BMSCs (rBMSCs). Nature of the series: ALP activity in rat bone marrow stromal cells. Type of series: cell-based. The following applies: 1 nM, seven days post-treatment.
For series [3], the system named is GSK3β phosphorylation in RCO. The series is described as follows: Western blotting of p-GSK/GSK in RCO. Type of series: cell-based, rat. The following applies: 10 nM. As to the method:
Western blotting was performed as previously described. Briefly, whole-cell extracts (WCEs) were prepared at indicated time points using RIPA lysis buffer, and aliquots of 30 μg protein per lane were loaded and resolved on SDS-PAGE (10%), followed by blotting onto the PVDF membrane (Millipore Inc., Burlington, MA, USA). The membrane was blocked in 1% BSA, followed by immunoblotting with primary antibodies: Runx2 (ab 76956) (1:1000), pGSK (9323S) (1:1000), and GSK (9315S) (1:1000) at 4 °C overnight. Anti-rabbit HRP secondary antibody (Sigma, catalog number A0545) (1:3000) was used for Runx2, pGSK3β, and GSK3β. Bands were detected by incubating the membranes with ECL substrate (Thermo Fisher Scientific, Waltham, MA, USA) and developed on ChemiDoc (Image Quant LAS 4000, GE Healthcare, Hatfield, UK). Blots were re-probed after washing with mild stripping buffer (1.5% Glycine, 0.1% SDS, and 1% Tween 20).

Series [4] is described as follows: Pharmacokinetic study, s.c., plasma LC-MS/MS. Type of series: in vivo. The following applies: rats, 40 mg/rat s.c. As to the method:
Mass spectrometric detections were carried out using an AB Sciex 4000 QTRAP LC-MS/MS, Redwood City, CA, USA) instrument fitted with an electrospray ionization source. Separation was conducted through X Bridge^TM Shield RP 18 (Waters, MA, USA) (5 µm, 4.6 × 50 mm) column. […] The ion spray voltage was set at 4500 V. […] The MS was operated in the ESI positive-ion mode, and the detection of the ions was performed in the multiple reaction monitoring (MRM) mode, monitoring the transition of m/z 172.06 precursor ion [M + H]+ to the m/z 128.08 product ion for IS and m/z 236.95 precursor ion [M + H]+ to the m/z 194.04 product ion for compound, respectively. After overnight fasting, the animals were divided into two groups (n = 4) based on the treatment: […] An MTZ suspension was prepared in water. Blood samples were collected at predetermined time points (0.25 to 48 h). […] To extract MTZ from plasma samples, the protein precipitation method was used. In this method, plasma samples (50 μL) were taken (50 ng/mL of carbamazepine (CBZ) as the internal standard) and vortexed at 2000 rpm for 10 min. Subsequently, the samples were centrifuged at 10,000 rpm for 10 min. The supernatant (100 µL) was taken for LC-MS/MS analysis. Data acquisition and quantitation were performed using analyst software. The PK parameters were determined using the Phoenix™ 6.3 WinNonlin (Pharsight Corporation, Mountain View, CA, USA) software as a noncompartmental model approach.

The subject of series [5] is trabecular bone of OVX osteopenic rats. The series is described as follows: OVX osteopenia model, micro-CT of trabecular bone. Type of series: in vivo, SD rats. The following applies: 235 mg/kg oral, 3 months. As to the method: The 10-month-old (265 ± 20 g) SD rats were ovariectomized (OVX) bilaterally and left for 3 months to develop osteopenia. Ovary-intact sham-operated animals were used as a control. A live animal micro-CT was performed to confirm osteopenia, followed by dividing the animals into 3 groups: Sham + vehicle (water, oral), OVX + vehicle (water, oral), and OVX + MTZ (235 mg/kg, oral). Each group had 9 rats, and treatment were administered for 3 months. Calcein (20 mg/kg, s.c.) was injected twice before sacrificing at 10-day intervals. A SkyScan 1076 μCT scanner (SkyScan, Ltd., Kartuizersweg, Kontich, Belgium) was used to perform a high-resolution μCT for the two-dimensional and three-dimensional assessment of excised bones. The rat bone scanning process used an isotropic voxel pixel size of 18 μm and an X-ray source of 70 kV and […]. Utilizing the SkyScan Nrecon software (Version: 1.7.0.4), cross-sectional reconstruction was performed. In order to examine the trabecular region of the femur and tibia, 100 slices were used to draw the region of interest (ROI), which was limited to the secondary spongiosa region 1.5 mm from the growth plate’s distal border. The primary spongiosa and cortical bone were not included in the ROI. A ROI was drawn on 70 slices of the mid-vertebral region for the L5 vertebral study. The Batman software (Version: 1.16.8.0+), with trabecular (3D) bone analysis programs was used for quantification.

Setting [6] is: femur and tibia metaphyses, OVX rats.
The mark [7] stands for this setting: proximal femur and tibia metaphyses, OVX rats.

Read-outs that look alike come from different tables or passages of the source.

Usually MRT stands for a mean duration of stay, worked out from the concentration-time curve. A word on the AUC: it is the area under the concentration-time curve, a measure of exposure. As a reminder, the AUC(0-inf) is the area under the concentration-time curve extrapolated to infinity. Read a high AUC(0-inf) as more exposure. By Tmax is commonly meant the time at which the peak concentration occurs. What is called half-life is the time in which the quantity being followed falls by half. Read a low half-life as rapid decline. As for `Cc1ncc([N+](=O)[O-])n1CCO` [Metronidazole], the “Proliferation (BrdU incorporation)” value in series [1] was “did not affect”. For the same molecule, the “ALP activity compared to the vehicle group” value in series [2] is reported as “increased”. Besides, in series [3], the GSK3β phosphorylation entry is “increased GSK3β phosphorylation in a time-dependent manner” and the “Time of maximum effect on GSK3β phosphorylation” value is recorded as 15 min. This molecule also showed a mean residence time (MRT) in series [4] (plasma, sc) of 7.63 ± 0.3 h. Moreover, the AUC in series [4] (plasma, sc, read-out: Area under the curve (AUC)0–last) was determined as 206 ± 7.05 µg·h/mL. The Cmax in series [4] (plasma, sc, read-out: Maximum concentration (Cmax)) is 23000 ± 870 ng/mL. Further, in series [4], the Cl was found to be 13 ± 0.5 mL/min/kg and the Vd came out at 4.91 ± 0.15 L/kg. In addition, in series [4] (sc, plasma), the AUC(0-inf) worked out at 206 ± 7.05 µg·h/mL, the Tmax was 1.75 ± 0.25 h and the half-life is 4.39 ± 0.26 h. Also, in series [4] (sc, plasma, read-out: Cmax), the Cmax is 23000 ± 870 ng/mL. The “Trabecular bone parameters at vertebra (L5)” value in series [5] (L5, OVX rats) is listed as “failed to restore”. In series [5] (setting [6]), the “Trabecular number (Tb.N)” value is “significant enhancement”, the “Trabecular spacing (Tb.sp)” value was “restored trabecular spacing (Tb.sp) to sham levels” and the “Trabecular thickness (Tb.Th)” value is “complete restoration”. In series [5] (setting [7]), the BMD entry is listed as “significantly increased” and the “Bone volume (BV/TV)” value is “significantly increased”.
